Patent US7491827B2, “Aryl sulfonamides useful as inhibitors of chemokine receptor activity” (Millennium Pharmaceuticals, Inc., priority 2003, dated 2009)

target: T1, cloned human CCR8 receptor stably expressed in L1.2 cells (Homo sapiens, UniProt P51685); test: whole cell binding screen: inhibition of biotinylated human I309 binding to CCR8 (FMAT 8100 HTS); settings: Ki of compounds to inhibit I-309 binding to CCR8, L1.2/hCCR8 cells, biotinylated human I-309, 10 point concentration response starting at 10 μM
T1 construct: expressed in transfected cells
T1 sequence (P51685 whole entry): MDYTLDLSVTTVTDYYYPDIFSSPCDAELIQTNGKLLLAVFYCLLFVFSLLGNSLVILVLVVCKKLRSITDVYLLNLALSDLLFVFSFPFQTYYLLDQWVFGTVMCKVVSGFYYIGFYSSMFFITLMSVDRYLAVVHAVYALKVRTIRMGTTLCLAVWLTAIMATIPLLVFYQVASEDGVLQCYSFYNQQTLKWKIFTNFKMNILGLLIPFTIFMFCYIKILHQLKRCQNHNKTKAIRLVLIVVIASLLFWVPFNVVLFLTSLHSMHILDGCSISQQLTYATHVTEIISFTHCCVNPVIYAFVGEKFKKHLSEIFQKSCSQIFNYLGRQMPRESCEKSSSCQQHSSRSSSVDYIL
Summary of the method: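 L1.2 murine pre-B cells stably expressing human CCR8 (4.0×10^5 cells/mL) in HBSS/HEPES/fatty-acid-free BSA/azide buffer were mixed with biotinylated human I309 and compounds for 0.5 h, read by FMAT fluorescence. 10-point curves from 10 μM final; percent inhibition normalized to no-inhibitor and 100 nM unlabeled I309 controls.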

SMILES | Ki
Cc1ccccc1C(=O)Nc1ccc(S(=O)(=O)NC2CCN(C(=O)CO)CC2)c2ccccc12 [Compound C-121, N-{4-[1-(2—Hydroxy-acetyl)-piperidin-4-ylsuffamoyl]-naphthalen-1-yl}-2-methyl-benzamide] | < 500 nM
CCCNC(=O)N1CCC(NS(=O)(=O)c2ccc(NC(=O)c3ccccc3C)c3ccccc23)CC1 [Compound C-45, 4-[4-(2-Methyl-benzoylamino)-naphthalene-1-sulfonylamino]-piperidine-1-carboxylic acid propylamide] | < 500 nM
O=C(Nc1ccc(S(=O)(=O)NC2CCNCC2)c2ccccc12)c1ccccc1 [Compound C-1, N-[4-(Piperidin-4-ylsulfamoyl)-naphthalen-1-yl]-benzamide] | < 1000 nM

same assay, conditions: L1.2/hCCR8 cells, biotinylated human I-309, 10 point concentration response starting at 10 μM; read-out: Ki of compounds to inhibit I-309 binding to CCR8

SMILES | Ki
CCOC(=O)N1CCC(NS(=O)(=O)c2ccc(NC(=O)c3ccccc3C)c3c2CN(CC)CC3)CC1 [Compound J-42, 4-[2-Ethyl-5-(2-methyl-benzoylamno)-1,2,3,4-tetrahydro-isoquinoline-8-sulfonylamino]-piperidine-1-carboxylic acid ethyl ester] | < 500 nM
Cc1ccccc1C(=O)Nc1ccc(S(=O)(=O)N[C@H]2CCNC[C@H]2C)c2ccccc12 [Compound J-50] | < 500 nM
CCCC(=O)N1CC[C@H](NS(=O)(=O)c2ccc(NC(=O)c3ccccc3C)c3ccccc23)[C@@H](C)C1 (racemic) [Compound C-19, (±)-trans-N-[4-(1-Butyryl-3-methyl-piperidin-4-ylsulfamoyl)-naphthalen-1-yl]-2-methyl-benzamide] | < 500 nM
CCOC(=O)N1CCC(NS(=O)(=O)c2ccc(CNCc3ccc(Cl)cc3)c3ccccc23)CC1 [Compound G-7, 4-{4-[(4-Chloro-benzylamino)-methyl]-naphthalene-1-sulfonylamino}-piperidine-1-carboxylic acid ethyl ester] | < 500 nM
CCOC(=O)N1CCC(NS(=O)(=O)c2cccc3c(C(=O)NC4CCCCC4C)cccc23)CC1 (racemic) [Compound H-24, (±)-4-[5-(2-Methyl-cyclohexylcarbamoyl)-naphthalene-1-sulfonylamino]-piperidine-1-carboxylic acid ethyl ester] | < 500 nM
O=C1c2ccccc2C(=O)N1Cc1ccc(S(=O)(=O)NC2CCCCC2)c2ccccc12 [Compound G-4, 4-(1,3-Dioxo-1,3-dihydro-isoindol-2-ylmethyl)-naphthalene-1-sulfonic acid cyclohexylamide] | < 30000 nM
Cc1ccccc1C(=O)Nc1ccc(S(=O)(=O)NC2CCN(Cc3ccccc3)CC2(C)C)c2ccccc12 (racemic) [Compound A-24, (±)-N-[4-(1-Benzyl-3,3-dimethyl-piperidin-4-ylsulfamoyl)-naphthalen-1-yl]-2-methyl-benzamide] | < 500 nM
CCC(=O)N1CCC(NS(=O)(=O)c2ccc(NC(=O)c3ccccc3Cl)c3ccccc23)CC1 [Compound C-103, 2-Chloro-N-[4-(1-propionyl-piperidin-4-ylsuffamoyl)-naphthalen-1-yl]-benzamide] | < 500 nM
CC(=O)N1CC[C@H](NS(=O)(=O)c2ccc(NC(=O)c3ccccc3C)c3ccccc23)[C@H](C)C1 (racemic) [Compound C-30, (±)-cis-N-[4-(1-Acetl-3-methyl-piperidin-4-ylsulfamoyl)-naphthalen-1-yl]-2-methyl-benzamide] | < 500 nM
Cc1ccccc1C(=O)Nc1ccc(S(=O)(=O)NC2CCN(C(=O)OC(C)C)CC2)c2ccccc12 [Compound C-37, 4-[4-(2-Methyl-benzoylamino)-naphthalene-1-sulfonylamino]-piperidine-1-carboxylic acid isopropyl ester] | < 500 nM
COc1ccc(NS(=O)(=O)c2ccc3cccc(NC(=O)c4ccccc4)c3c2)cc1 [Compound H-47, N-[7-(4-Methoxy-phenylsulfamoyl)-naphthalen-1-yl]-benzamide] | < 500 nM
CCOC(=O)N1CCC(NS(=O)(=O)c2ccc(CN(CC)C3CCCCC3)c3ccccc23)CC1 [Compound G-20, 4-{4-[(Cyclohexyl-ethyl-amino)-methyl]-naphthalene-1-sulfonylamino}-piperidine-1-carboxylic acid ethyl ester] | < 500 nM
Cc1ccccc1C(=O)Nc1ccc(S(=O)(=O)N[C@@H]2CCN(C(=O)CN3CCCC3)C[C@@H]2C)c2ccccc12 (racemic) [Compound C-142, (±)-2-Methyl-N-{4-[cis-3-methyl-1-(2-pyrrolidin-1-yl-acetyl)-piperidin-4-ylsulfamoyl]-naphthalen-1-yl}-benzamide] | < 500 nM
Cc1ccccc1C(=O)Nc1ccc(S(=O)(=O)NC2CCN(C(=O)N(C)C)C2)c2c1CCCC2 (racemic) [Compound E-32, (±)-3-[4-(2-Methyl-benzoylamino)-5,6,7,8-tetrahydro-naphthalene-1-sulfonylamino]-pyrrolidine-1-carboxylic acid dimethylamide] | < 500 nM
O=S(=O)(NC1CCCCC1)c1ccc(CNC2CCCCC2)c2ccccc12 [Compound G-31, 4-Cyclohexylaminomethyl-naphthalene-1-sulfonic acid cyclohexylamide] | < 500 nM
CCOC(=O)N1CCC(NS(=O)(=O)c2cccc3c(NC(=O)c4cccc(C)c4)cccc23)CC1 [Compound H-13, 4-[5-(3-Methyl-benzoylamino)-naphthalene-1-sulfonylamino]-piperidine-1-carboxylic acid ethyl ester] | < 30000 nM
Cc1ccccc1C(=O)Nc1ccc(S(=O)(=O)NC2(C)CCNCC2)c2ccccc12 [Compound J-49] | < 500 nM
CCCC(=O)N1CCC(NS(=O)(=O)c2cc3c(c(N4C(=O)c5ccccc5C4=O)c2)CCCC3)CC1 [Compound H-60, 4-(1,3-Dioxo-1,3-dihydro-isoindol-2-yl)-5,6,7,8-tetrahydro-naphthalene-2-sulfonic acid (1-butyryl-piperidin-4-yl)-amide] | < 30000 nM
Cc1ccccc1C(=O)Nc1ccc(S(=O)(=O)NC2CCN(C(=O)N3CCCC3)CC2)c2c1CCCC2 [Compound E-11, 2-Methyl-N-{4-[1-(pyrrolidine-1-carbonyl)-piperidin-4-ylsulfamoyl]-5,6,7,8-tetrahydro-naphthalen-1-yl}-benzamide] | < 500 nM
CCNC(=O)N1CCCC(NS(=O)(=O)c2ccc(NC(=O)c3ccccc3C)c3ccccc23)C1 (racemic) [Compound C-113, (±)-3-[4-(2-Methyl-benzoylangno)-naphthalene-1-sulfonylamino]-piperidine-1-carboxylic acid ethylamide] | < 500 nM
CCOC(=O)N1CCC(NS(=O)(=O)c2ccc(N3C(=O)c4ccccc4C3=O)c3ccccc23)CC1 [Compound A-18, 4-[4-(1,3-Dioxo-1,3-dihydro-isoindol-2-yl)-naphthalene-1-sulfonylamino]-piperidine-1-carboxylic acid ethyl ester] | < 500 nM
Cc1ccccc1C(=O)Nc1ccc(S(=O)(=O)NC2CCN(C(=O)N(C)C)CC2)c2c1CCCC2 [Compound E-10, 4-[4-(2-Methyl-benzoylamino)-5,6,7,8-tetrahydro-naphthalene-1-sulfonylamino]-piperidine-1-carboxylic acid dimethylamide] | < 500 nM
CCOC(=O)N1CCC(NS(=O)(=O)c2ccc(NC(=O)c3ccccc3C)c3c2CCCC3)CC1 [Compound E-8, 4-[4-(2-Methyl-benzoylamino)-5,6,7,8-tetrahydro-naphthalene-1-sulfonylamino]-piperidine-1-carboxylic acid ethyl ester] | < 500 nM
